From patent US8609086B2, “Preparation created from an in vitro culture of dedifferentiated, non-elicited cells of the Argania tree, use thereof for treating skin ageing, inflammation and scarring, and production thereof” (Pierre Fabre Dermo-Cosmetique, priority 2010, dated 2013)

Assay: Anti-oxidizing activity by chemiluminescence (ACL kit), trolox equivalent
Type: biochemical
Details: anti-oxidizing power in trolox equivalent, trapping of superoxide anions
Source text: This method generates free radicals (superoxide radical O2^o−) by a photochemical signal. The intensity of oxidation is 1000 times greater than that obtained under normal conditions. Detection is done by chemiluminescence and is used to evaluate lipo or hydrosoluble anti-oxidizing extracts or molecules. The results are expressed as an equivalent quantity of vitamin C or Trolox (6-Hydroxy-2,5,7,8-tetramethylchroman-2-carboxylic acid). The sensitivity is of the order of one nanomole.
The analysis of the results depends on two criteria, namely the shape of the curve (integration) and the numerical value given by the software in nanomoles. (Igor Popov and Gudrun Lewin. Methods in enzymology vol 300. 437-456; Maibach I Howard and coll. Journal of Cosmetic Dermatology Vol 7(2) 96-100 (2008)).
The results will be expressed in μg of sample necessary to obtain an activity equivalent to the activity detected for 1 μg of standard (=trolox). (ACL Kit).
The anti-oxidizing activity studied in this test represents the ability to specifically trap superoxide anions by chemiluminescence.

Q: With `COC1=C(OC)C(=O)C(C/C=C(\C)CC/C=C(\C)CC/C=C(\C)CC/C=C(\C)CC/C=C(\C)CC/C=C(\C)CC/C=C(\C)CC/C=C(\C)CC/C=C(\C)CCC=C(C)C)=C(C)C1=O` [Coenzyme 10] as the compound, how does the “ACL μg of sample for 1 μg of Trolox” value read?
A: Its value is 272 μg of sample for 1 μg of Trolox.

Q: With `Cc1c(C)c2c(c(C)c1O)CCC(C)(C(=O)O)O2` (centres unmarked) [Trolox, 6-Hydroxy-2,5,7,8-tetramethylchroman-2-carboxylic acid] as the compound, how does the “ACL μg of sample for 1 μg of Trolox” value read?
A: Its value is 1 μg of sample for 1 μg of Trolox.
